Measured values published in patent publication US6060458A (The United States of America as represented by the …, priority 1998, dated 2000).
Residue numbers refer to the chain shown, from its start.

Key:
[1] = tested on: wild-type human alkyltransferase (AGT); assay: Inactivation of purified wild-type human AGT, residual activity on [3H]-methylated DNA substrate; type: biochemical; conditions: 30 min at 37° C. incubation with inactivator
Description: (§1) Whether or not a given single-stranded oligodeoxyribonucleotide inactivates a wild-type or mutant human alkyltransferase can be determined by measuring alkyltransferase depletion. For example, a stock solution (100 mM) of a given single-stranded oligodeoxyribonucleotide in an aqueous or mixed aqueous/organic solvent can be prepared. Solutions of the human wild-type AGT, mutant human AGT, or the AGT from HT29 cells and cell extracts (Domoradzki et al., Carcinogenesis 5: 1641-1647 (1984)) can be incubated with varying concentrations (between 0 and 400 μM, for example) of the oligodeoxyribonucleotide for 30 min in a buffer containing 50 mM Tris-HCl, pH 7.5, 0.1 mM EDTA, and 5 mM dithiothreitol, and alkyltransferase depletion can be measured. Alternatively, cells can be plated at a density of 5×10^6 cells/T75 flask and allowed to grow for three days, at which time the medium can be replaced with medium containing a given concentration of an oligodeoxyribonucleotide. After four hours, cells can be harvested and frozen at -80° C. for analysis of alkyltransferase depletion later. Alkyltransferase depletion is determined by measuring loss of O^6 -[^3 H]methylguanine, for example, from a [^3 H]methylated DNA substrate, for example, which can be prepared by reacting [^3 H]methylnitrosourea (21.5 Ci/mmol) with calf thymus DNA as described previously (Domoradzki et al. (1984), supra; and Dolan et al. (1990), supra).
(§2) Wild-type human AGT and mutants thereof, namely P140A and G156A, were prepared using the pIN vector expression system. pIN-AGT, pIN-P140A (Pro-140 to Ala) and pIN-G156A (Gly-156 to Ala) (Crone et al. (1993), supra; Crone et al. (1994), supra; and Pegg et al. (1993), supra).
(§3) The wild-type and mutant AGT proteins expressed from the pIN vectors were purified to homogeneity by ammonium sulfate precipitation, Mono-S chromatography and gel filtration as previously described (Pegg et al. (1993), supra; and Kanugula et al. (1995), supra). […] Afterwards, residual AGT activity was determined by a 30 min incubation with a [^3 H]-methylated DNA substrate (1.0 ml volume), which had been methylated by reaction with N-[^3 H]-methyl-N-nitrosourea as previously described (Dolan et al. (1993), supra; and Dolan et al. (1991), supra).

[2] = molecular target: T1, mutant human alkyltransferase G156A (Homo sapiens, UniProt P16455, G156A); assay: Inactivation of purified mutant human AGT G156A, residual activity on [3H]-methylated DNA substrate; type: biochemical; conditions: 30 min at 37° C. incubation with inactivator
T1 construct: made in house; E. coli by own knowledge of pIN vectors
T1 sequence (P16455 1-207 G156A): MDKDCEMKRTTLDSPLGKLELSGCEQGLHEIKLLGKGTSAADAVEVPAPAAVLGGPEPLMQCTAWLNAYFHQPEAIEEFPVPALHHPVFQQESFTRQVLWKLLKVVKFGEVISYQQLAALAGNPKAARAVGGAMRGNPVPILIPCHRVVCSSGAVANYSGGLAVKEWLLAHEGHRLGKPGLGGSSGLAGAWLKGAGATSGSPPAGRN
Description: as §1, §2, §3

[3] = molecular target: T2, mutant human alkyltransferase P140A (Homo sapiens, UniProt P16455, P140A); assay: Inactivation of purified mutant human AGT P140A, residual activity on [3H]-methylated DNA substrate; type: biochemical; conditions: 30 min at 37° C. incubation with inactivator
T2 construct: made in house; E. coli by own knowledge of pIN vectors
T2 sequence (P16455 1-207 P140A): T1 sequence (P16455 1-207 G156A) with P140A, A156G
Description: as §1, §2, §3

[4] = molecular target: wild-type human alkyltransferase (AGT); conditions: data previously published, read-out: ED50 for inactivation of AGT; cited from earlier work
[5] = tested on: AGT; conditions: cell culture; maximal reduction attained (Pegg et al. (1995)); cited from earlier work
[6] = molecular target: T1, mutant human alkyltransferase G156A; conditions: G156A mutant AGT; data previously published; read-out: ED50 for inactivation of AGT; cited from earlier work
[7] = molecular target: T2, mutant human alkyltransferase P140A; conditions: P140A mutant AGT; data previously published; read-out: ED50 for inactivation of AGT; cited from earlier work

Compound	ED50 for inactivation of AGT (concentration needed to reduce AGT activity by 50%) [1]	ED50 for inactivation of AGT (concentration needed to reduce AGT activity by 50%) [2]	ED50 for inactivation of AGT (concentration needed to reduce AGT activity by 50%) [3]	IC50 [4]	reduction of AGT activity [5]	IC50 [6]	IC50 [7]
5'-d(Ab^6 GC)-3'	90 nM	4600 nM	770 nM	–	–	–	–
5'-d(GAb^6 GCT)-3'	13 nM	60 nM	50 nM	–	–	–	–
5'-d(GTGAb^6 GCTGT)-3'	8 nM	90 nM	60 nM	–	–	–	–
5'-d(TGAb^6 GCTG)-3'	7 nM	50 nM	60 nM	–	–	–	–
5'-d(TGTGAb^6 GCTGTG)-3'	13 nM	110 nM	75 nM	–	–	–	–
Nc1nc(OCc2ccccc2)c2[nH]cnc2n1 [O^6 -benzylguanine]	–	–	–	200 nM	–	–	–
COc1nc(N)nc2[nH]cnc12 [O^6 -methylguanine]	–	–	–	–	85%	–	–
Nc1nc(OCc2ccccc2)c2ncn([C@H]3C[C@H](O)[C@@H](CO)O3)c2n1 [O^6-benzyl-2'-deoxyguanosine]	–	–	–	2000 nM	–	> 100000 nM	> 20000 nM
